# Measured values published in patent US11319299B2, “Substituted carboxamides as inhibitors of WDR5 protein-protein binding” (PROPELLON THERAPEUTICS INC., priority 2016, dated 2022).
# Biological target: WDR5 (Homo sapiens (Human), UniProt P61964)
# Assay: Surface Plasmon Resonance (SPR) assay, KD and residence time
# Format: binding
# Settings: surface plasmon resonance (SPR) assay; read-out: WDR5 binding affinity (KD)
row,Compound,Kd [nM]
1,"C[C@@H]1CN(c2cc(F)c(-c3cccc(N4CCOCC4)c3)cc2NC(=O)c2c[nH]c(=O)cc2C(F)(F)F)C[C@H](C)N1C [Example 85, N-[4-fluoro-5-(3-morpholin-4-ylphenyl)-2-[(3R,5S)-3,4,5-trimethylpiperazin-1-yl]phenyl]-6-oxo-4-(trifluoromethyl)-1H-pyridine-3-carboxamide]",0.703
2,"COc1ccccc1C(=O)Nc1cc(-c2cnc(N3CCOCC3)nc2)c(F)cc1N1C[C@@H](C)N(C)[C@@H](C)C1 [Example 86, N-[4-fluoro-5-(2-morpholin-4-ylpyrimidin-5-yl)-2-[(3R,5S)-3,4,5-trimethylpiperazin-1-yl]phenyl]-2-methoxybenzamide]",204
3,"C[C@@H]1CN(c2cc(F)c(-c3cnc(N4CCOCC4)nc3)cc2NC(=O)c2ccc(F)cc2Cl)C[C@H](C)N1C [Example 87, 2-chloro-4-fluoro-N-[4-fluoro-5-(2-morpholin-4-ylpyrimidin-5-yl)-2-[(3R,5S)-3,4,5-trimethylpiperazin-1-yl]phenyl]benzamide]",8.21
4,"C[C@@H]1CN(c2cc(F)c(-c3cnc(N4CCOCC4)nc3)cc2NC(=O)c2cc(F)ccc2C(F)(F)F)C[C@H](C)N1C [Example 88, 5-fluoro-N-[4-fluoro-5-(2-morpholin-4-ylpyrimidin-5-yl)-2-[(3R,5S)-3,4,5-trimethylpiperazin-1-yl]phenyl]-2-(trifluoromethyl)benzamide]",24.1
5,"COc1cccc(C(=O)Nc2cc(-c3cnc(N4CCOCC4)nc3)c(F)cc2N2C[C@@H](C)N(C)[C@@H](C)C2)c1 [Example 89, N-[4-fluoro-5-(2-morpholin-4-ylpyrimidin-5-yl)-2-[(3R,5S)-3,4,5-trimethylpiperazin-1-yl]phenyl]-3-methoxybenzamide]",33.8
6,"C[C@@H]1CN(c2cc(F)c(C3=CCOCC3)cc2NC(=O)c2c[nH]c(=O)cc2C(F)(F)F)C[C@H](C)N1C [Example 94, N-[5-(3,6-dihydro-2H-pyran-4-yl)-4-fluoro-2-[(3R,5S)-3,4,5-trimethylpiperazin-1-yl]phenyl]-6-oxo-4-(trifluoromethyl)-1H-pyridine-3-carboxamide]",4.06
7,"C[C@@H]1CN(c2cc(F)c(C3=CCNCC3)cc2NC(=O)c2c[nH]c(=O)cc2C(F)(F)F)C[C@H](C)N1C [Example 95, N-[4-fluoro-2-[(3R,5S)-3,4,5-trimethylpiperazin-1-yl]-5-(1,2,3,6-tetrahydropyridin-4-yl)phenyl]-6-oxo-4-(trifluoromethyl)-1H-pyridine-3-carboxamide]",7.18
8,"C[C@@H]1CN(c2cc(F)c(-c3cc(Cl)c(O)c(C#N)c3)cc2NC(=O)c2c[nH]c(=O)cc2C(F)(F)F)C[C@H](C)N1C [Example 98, N-[5-(3-chloro-5-cyano-4-hydroxyphenyl)-4-fluoro-2-[(3R,5S)-3,4,5-trimethylpiperazin-1-yl]phenyl]-6-oxo-4-(trifluoromethyl)-1H-pyridine-3-carboxamide]",19.5
9,"C[C@@H]1CN(c2cc(F)c(-c3cnc(OCc4ccccc4)c(C#N)c3)cc2NC(=O)c2c[nH]c(=O)cc2C(F)(F)F)C[C@H](C)N1C [Example 99, N-[5-(5-cyano-6-phenylmethoxypyridin-3-yl)-4-fluoro-2-[(3R,5S)-3,4,5-trimethylpiperazin-1-yl]phenyl]-6-oxo-4-(trifluoromethyl)-1H-pyridine-3-carboxamide]",11.1
10,"C[C@@H]1CN(c2cc(F)c(-c3ccc(C#N)cc3)cc2NC(=O)c2c[nH]c(=O)cc2C(F)(F)F)C[C@H](C)N1C [Example 100, N-[5-(4-cyanophenyl)-4-fluoro-2-[(3R,5S)-3,4,5-trimethylpiperazin-1-yl]phenyl]-6-oxo-4-(trifluoromethyl)-1H-pyridine-3-carboxamide]",0.508
11,"C[C@@H]1CN(c2cc(F)c(-c3ccc(OC4CCOCC4)nc3)cc2NC(=O)c2c[nH]c(=O)cc2C(F)(F)F)C[C@H](C)N1C [Example 101, N-[4-fluoro-5-[6-(oxan-4-yloxy)pyridin-3-yl]-2-[(3R,5S)-3,4,5-trimethylpiperazin-1-yl]phenyl]-6-oxo-4-(trifluoromethyl)-1H-pyridine-3-carboxamide]",0.32
12,"C[C@@H]1CN(c2cc(F)c(-c3cccc(C#N)c3)cc2NC(=O)c2c[nH]c(=O)cc2C(F)(F)F)C[C@H](C)N1C [Example 102, N-[5-(3-cyanophenyl)-4-fluoro-2-[(3R,5S)-3,4,5-trimethylpiperazin-1-yl]phenyl]-6-oxo-4-(trifluoromethyl)-1H-pyridine-3-carboxamide]",2.08
13,"C[C@@H]1CN(c2cc(F)c(-c3cnc(N(C)C)nc3)cc2NC(=O)c2c[nH]c(=O)cc2C(F)(F)F)C[C@H](C)N1C [Example 103, N-[5-[2-(dimethylamino)pyrimidin-5-yl]-4-fluoro-2-[(3R,5S)-3,4,5-trimethylpiperazin-1-yl]phenyl]-6-oxo-4-(trifluoromethyl)-1H-pyridine-3-carboxamide]",0.168
14,"COc1cc(-c2cc(NC(=O)c3c[nH]c(=O)cc3C(F)(F)F)c(N3C[C@@H](C)N(C)[C@@H](C)C3)cc2F)cnc1OC [Example 104, N-[5-(5,6-dimethoxypyridin-3-yl)-4-fluoro-2-[(3R,5S)-3,4,5-trimethylpiperazin-1-yl]phenyl]-6-oxo-4-(trifluoromethyl)-1H-pyridine-3-carboxamide]",2.41
15,"C[C@@H]1CN(c2cc(F)c(-c3cnc(N4CCOCC4)nc3)cc2NC(=O)c2cccc3c2OCO3)C[C@H](C)N1C [Example 105, N-[4-fluoro-5-(2-morpholin-4-ylpyrimidin-5-yl)-2-[(3R,5S)-3,4,5-trimethylpiperazin-1-yl]phenyl]-1,3-benzodioxole-4-carboxamide]",466
16,"COc1ccc(C(=O)Nc2cc(-c3cnc(N4CCOCC4)nc3)c(F)cc2N2C[C@@H](C)N(C)[C@@H](C)C2)cc1 [Example 106, N-[4-fluoro-5-(2-morpholin-4-ylpyrimidin-5-yl)-2-[(3R,5S)-3,4,5-trimethylpiperazin-1-yl]phenyl]-4-methoxybenzamide]",5400
17,"C[C@@H]1CN(c2cc(F)c(-c3cnc(N4CCOCC4)nc3)cc2NC(=O)c2ccc(F)cc2)C[C@H](C)N1C [Example 107, 4-fluoro-N-[4-fluoro-5-(2-morpholin-4-ylpyrimidin-5-yl)-2-[(3R,5S)-3,4,5-trimethylpiperazin-1-yl]phenyl]benzamide]",137
18,"C[C@@H]1CN(c2cc(F)c(-c3cnc(N4CCOCC4)nc3)cc2NC(=O)c2ccccc2Cl)C[C@H](C)N1C [Example 109, 2-chloro-N-[4-fluoro-5-(2-morpholin-4-ylpyrimidin-5-yl)-2-[(3R,5S)-3,4,5-trimethylpiperazin-1-yl]phenyl]benzamide]",175
19,"COc1cccc(C(=O)Nc2cc(-c3cnc(N4CCOCC4)nc3)c(F)cc2N2C[C@@H](C)N(C)[C@@H](C)C2)c1F [Example 110, 2-fluoro-N-[4-fluoro-5-(2-morpholin-4-ylpyrimidin-5-yl)-2-[(3R,5S)-3,4,5-trimethylpiperazin-1-yl]phenyl]-3-methoxybenzamide]",1730
20,"C[C@@H]1CN(c2cc(F)c(-c3cnc(N4CCOCC4)nc3)cc2NC(=O)c2ccc(F)c(F)c2)C[C@H](C)N1C [Example 111, 3,4-difluoro-N-[4-fluoro-5-(2-morpholin-4-ylpyrimidin-5-yl)-2-[(3R,5S)-3,4,5-trimethylpiperazin-1-yl]phenyl]benzamide]",70.6
21,"COc1ccc(-c2cc(NC(=O)c3c[nH]c(=O)cc3C(F)(F)F)c(N3C[C@@H](C)N(C)[C@@H](C)C3)cc2F)cc1 [Example 112, N-[4-fluoro-5-(4-methoxyphenyl)-2-[(3R,5S)-3,4,5-trimethylpiperazin-1-yl]phenyl]-6-oxo-4-(trifluoromethyl)-1H-pyridine-3-carboxamide]",2.44
22,"C[C@@H]1CN(c2cc(F)c(-c3ccc(OCC4CC4)cc3)cc2NC(=O)c2c[nH]c(=O)cc2C(F)(F)F)C[C@H](C)N1C [Example 113, N-[5-[4-(cyclopropylmethoxy)phenyl]-4-fluoro-2-[(3R,5S)-3,4,5-trimethylpiperazin-1-yl]phenyl]-6-oxo-4-(trifluoromethyl)-1H-pyridine-3-carboxamide]",0.858
23,"C[C@@H]1CN(c2cc(F)c(-c3ccc(N4CCCC4)cc3)cc2NC(=O)c2c[nH]c(=O)cc2C(F)(F)F)C[C@H](C)N1C [Example 114, N-[4-fluoro-5-(4-pyrrolidin-1-ylphenyl)-2-[(3R,5S)-3,4,5-trimethylpiperazin-1-yl]phenyl]-6-oxo-4-(trifluoromethyl)-1H-pyridine-3-carboxamide]",4.06
24,"CC(=O)Nc1cccc(C(=O)Nc2cc(-c3cnc(N4CCOCC4)nc3)c(F)cc2N2C[C@@H](C)N(C)[C@@H](C)C2)c1 [Example 115, 3-acetamido-N-[4-fluoro-5-(2-morpholin-4-ylpyrimidin-5-yl)-2-[(3R,5S)-3,4,5-trimethylpiperazin-1-yl]phenyl]benzamide]",> 200
25,"C[C@@H]1CN(c2cc(F)c(-c3cccc(CN(C)C4COC4)c3)cc2NC(=O)c2c[nH]c(=O)cc2C(F)(F)F)C[C@H](C)N1C [Example 118, N-[4-fluoro-5-[3-[[methyl(oxetan-3-yl)amino]methyl]phenyl]-2-[(3R,5S)-3,4,5-trimethylpiperazin-1-yl]phenyl]-6-oxo-4-(trifluoromethyl)-1H-pyridine-3-carboxamide]",4.53
26,"C[C@@H]1CN(c2cc(F)c(-c3cccc(CN4CCC(F)CC4)c3)cc2NC(=O)c2c[nH]c(=O)cc2C(F)(F)F)C[C@H](C)N1C [Example 119, N-[4-fluoro-5-[3-[(4-fluoropiperidin-1-yl)methyl]phenyl]-2-[(3R,5S)-3,4,5-trimethylpiperazin-1-yl]phenyl]-6-oxo-4-(trifluoromethyl)-1H-pyridine-3-carboxamide]",5.12
27,"O=C(Nc1cc(-c2cnc(N3CCOCC3)nc2)c(F)cc1N1CCN2CCOCC2C1)c1c[nH]c(=O)cc1C(F)(F)F (stereo not drawn) [Example 120, N-[2-(3,4,6,7,9,9a-hexahydro-1H-pyrazino[2,1-c][1,4]oxazin-8-yl)-4-fluoro-5-(2-morpholin-4-ylpyrimidin-5-yl)phenyl]-6-oxo-4-(trifluoromethyl)-1H-pyridine-3-carboxamide]",> 200
